What was measured:
[1] = tested on: bovine heart mitochondrial complex (I, III, IV); test: NADH oxidase inhibition assay (beef heart submitochondrial particles); type: biochemical
Method: X. NADH Oxidase Inhibition Assay
Beef heart mitochondria were obtained by a large-scale procedure. Inverted submitochondrial particles (SMP) were prepared by the method of Matsuno-Yagi and Hatefi (J. Biol. Chem. 260 (1985), p. 14424), and stored in a buffer containing 0.25 M sucrose and 10 mM Tris-HCl (pH 7.4) at −80° C. Inhibitory effects of compounds on bovine heart mitochondrial complex (I, III, IV) were evaluated. Maximal dimethyl sulfoxide concentration never exceeded 2% and had no influence on the control enzymatic activity. Beef heart SMP were diluted to 0.5 mg/mL. The enzymatic activities were assayed at 30° C. and monitored spectrophotometrically with a Beckman Coulter DU-530 (340 nm, ε=6.22 mM^−1 cm^−1). NADH oxidase activity was determined in a reaction medium (2.5 mL) containing 50 mM Hepes, pH 7.5, containing 5 mM MgCl2. The final mitochondrial protein concentration was 30 μg/mL. After the pre-equilibration of SMP with inhibitor for 5 min, the initial rates were calculated from the linear portion of the traces.

CEM leukemia cells = test: Suppression of ROS production (DCFH-DA, flow cytometry) in DEM-treated cells; type: cell-based; conditions: CEM cells treated with DEM, untreated control 100, treated control 0
Method: (§1) Leukemic CEM cells (ATCC®, catalogue number CRL-2264) were cultured in RPMI (GIBCO, Grand island, NY, USA) with 10% FBS (Fisher Scientific, TX, USA), 2 mM glutamine (HyClone, South Logan, Utah, USA) and 1% penicillin-streptomycin mix antibiotics (Cellgro, Manassas, Va., USA) supplements. Cells were maintained in the log phase at a concentration of between 1×10^5 and 1×10^6 cells/mL.
Cellular ROS production can be monitored using 2′,7′-dichlorodihydrofluorescein diacetate (DCFH-DA) (LeBel et al. (1992) Chem. Res. Toxicol. 5, 227-231) (Molecular Probes, Eugene, Oreg., USA), a membrane permeable and oxidant-sensitive fluorescent dye. DCFH-DA is a non-fluorescent derivative of fluorescein that emits fluorescence after being oxidized by hydrogen peroxide and other ROS. The emitted fluorescence is directly proportional to the concentration of hydrogen peroxide. DCFH-DA is nonionic and nonpolar and is easily taken up by cells. Once inside the cell, DCFH-DA is hydrolyzed by cellular esterases to non-fluorescent DCFH which traps the dye in the cell. In the presence of ROS including hydrogen peroxide, DCFH is oxidized to the highly fluorescent compound dichlorofluorescein (DCF). The intracellular DCF fluorescence is used as an index of cellular ROS production.
Cellular oxidative stress was induced by pharmacological depletion of glutathione (GSH) using the chemical diethylmaleate (DEM). […] The compounds tested were prepared by first making stock solutions (1 mM) in dimethylsulfoxide (DMSO). Cells were treated with 5 mM DEM for 30 minutes and collected by centrifugation at 300×g for 3 min and then washed twice with Phosphate Buffer Saline (PBS) (Invitrogen, N.Y., USA). Cells were re-suspended in PBS buffer+10 mM glucose and incubated at 37° C. in the dark for 20 min with 10 μM DCFH-DA. Cells were collected by centrifugation at 300×g for 3 min and then washed twice with PBS buffer. The samples were analyzed immediately by flow cytometry (Becton-Dickinson FACS Caliber), (Cell Quest software, BD Biosciences) using 488 nm excitation laser and FL1-H channel 538 nm emission filter. In each analysis, 10,000 events were recorded after cell debris were electronically gated out. Results obtained were verified by running duplicates and repeating experiments N=3 independent experiments. Authentic hydrogen peroxide was used as a positive control.

FRDA cell line = test: Trypan blue exclusion cell viability assay, DEM-stressed cells; type: cell-based; conditions: FRDA cells stressed with DEM
Method: as §1, with “Friedreich's Ataxia lymphocytes and control” for “Leukemic CEM”, “(Coriell,” for “(ATCC®,”, “[…], respectively)” for “CRL-2264)”, “15%” for “10%”
V. Trypan Blue Cell Viability Assay
Cell viability determined by trypan blue exclusion assay: This technique was used to assess the cytoprotective effects of the invention compounds in cultured cells pharmacologically treated to induce cell death by GSH depletion. DEM was used to deplete cellular GSH and induce oxidative stress. The viability of DEM-treated cells was determined by their ability to exclude the dye trypan blue. Viable cells exclude trypan blue; whereas, non-viable cells take up the dye and stain blue. Briefly, cells were seeded at a density of 1×10^6 cells/mL and treated with different concentrations of the invention compounds. Cells were incubated at 37° C. in a humidified atmosphere of 5% CO2 in air for three hours with 5 mM DEM. Cell viability was determined by staining cells with 0.4% trypan blue using a hemocytometer. At least 500 cells were counted for each experimental group. At the time of assay, >95% of DEM-treated cells were trypan blue positive; whereas, in non-DEM treated control cell cultures >95% cells were viable. Cell viability was expressed as the percentage of control. Data are expressed as means±S.E.M (n=3).

leukemia CEM lymphocytes = test: Suppression of lipid peroxidation (C11-BODIPY 581/591, FACS) in DEM-treated cells; type: cell-based; conditions: CEM cells treated with DEM, untreated control 100, treated control 0
Method: as §1
Measurement of C11-BODIPY^581/591 Oxidation in Cell Culture
Lipid peroxidation in cells was detected by utilizing the oxidant-sensitive lipophilic probe C11 BODIPY^581/591. […] Cells were treated with 500 nM C11 BODIPY^581/591 in phenol red-free RPMI-1640 media and incubated at 37° C. in the dark for 30 minutes. The cells were washed twice with phosphate buffered saline and oxidative stress was induced with 5 mM DEM in phenol red-free RPMI-1640 media for 90 minutes. Treated cells were collected by centrifugation at 300×g for 3 minutes and then washed twice with phosphate buffered saline. Cells were re-suspended in 250 μL of phosphate buffered saline and were analyzed by FACS (FACS Calibur flow cytometer, Becton Dickinson) to monitor the change in intensity of the C11 BODIPY^581/591 green (oxidized) fluorescence signal.

FRDA lymphocyte = test: Mitochondrial bioenergetics assessment: total cellular ATP content; type: cell-based; conditions: for cellular ATP levels: after forty hours, at lower concentration (FIG. 3)
Method: XI. Mitochondrial Bioenergetics Assessment
The use of CoQ10 analogues and methylene blue analogues to normalize and restore the respiratory chain activities provides valuable therapeutic approach for mitochondrial diseases. The reductions of mitochondrial respiratory chain activity in Friedreich ataxia (FRDA) patients have been reported. The efficiency of oxidative phosphorylation was evaluated in FRDA lymphocyte (GM15850) in presence of tested CoQ10 analogues and methylene blue analogues by measuring total cellular ATP content using (ViaLight®-Plus ATP monitoring reagent kit, Lonza).
FRDA lymphocyte cell lines were obtained from Coriell Cell Repositories. FRDA lymphocytes were cultured under glucose-free media supplemented with galactose for two weeks to force energy production predominantly through oxidative phosphorylation rather than glycolysis. Lymphocytes were cultured in RPMI 1640 medium glucose-free supplemented with 25 mM galactose, 2 mM glutamine and 1% penicillin-streptomycin, and 10%, dialyzed fetal bovine serum FBS (<0.5 μg/mL). Briefly, lymphocytes (2×10^5 cell/mL), were plated (1 mL in 12-well plates) and treated with the test compounds at final concentrations of 50, 125. […] Cells were transferred (100 μL) to 96-well microtiter black-walled cell culture plates. The total intracellular ATP level was measured in a luminator (Clarity™ luminescence microplate reader) with the ATP Bioluminescence Assay Kit (ViaLight®-Plus ATP monitoring reagent kit, Lonza) following the manufacturer's instructions. Carbonyl cyanide-p-trifluormethoxy-phenylhydrazone (FCCP) and oligomycin were used as control for inhibition of ATP synthesis.

[2] = James et al. (2005); cited from earlier work

C=Cc1c(C)n(O)c(C)c(CCCCCCC)c1=O [CPD-1, 3-heptyl-1-hydroxy-2,6-dimethyl-5-vinylpyridin-4(1H)-one]
NADH oxidase (complex I, III, IV) activity (%) ([1]; 5 μM compound): 20.7 ± 2.2%
NADH oxidase (complex I, III, IV) activity (%) ([1]; 10 μM compound): 13.2 ± 1^ %
NADH oxidase (complex I, III, IV) activity (%) ([1]; l μM compound): 29.7 ± 3.8%
% of scavenging activity (ROS) (CEM leukemia cells; 0.25 μM): 23.4 ± 1.6%
% of scavenging activity (ROS) (CEM leukemia cells; 2.5 μM): 22.2 ± 3.5%
% of scavenging activity (ROS) (CEM leukemia cells; 10 μM): 20.0 ± 4.4%
viability at 0.1 µM (FRDA cell line): 25 ± 6%
viability at 0.5 µM (FRDA cell line): 42 ± 3%
viability at 2.5 µM (FRDA cell line): 30 ± 6%
Scavenging activity (%) (lipid peroxidation) (leukemia CEM lymphocytes; 1 μM): 0%
Scavenging activity (%) (lipid peroxidation) (leukemia CEM lymphocytes; 2.5 μM): 0%
Scavenging activity (%) (lipid peroxidation) (leukemia CEM lymphocytes; 5 μM): 0%

C=Cc1c(C)n(O)c(C)c(CCCCCCCCCCCCCCCC)c1=O [CPD-2, 3-hexadecyl-1-hydroxy-2,6-dimethyl-5-vinylpyridin-4(1H)-one]
NADH oxidase (complex I, III, IV) activity (%) ([1]; 5 μM compound): 12 ± 0.8%
NADH oxidase (complex I, III, IV) activity (%) ([1]; 10 μM compound): 11.9 ± 1.6%
NADH oxidase (complex I, III, IV) activity (%) ([1]; l μM compound): 20.1 ± 1.4%
% of scavenging activity (ROS) (CEM leukemia cells; 0.25 μM): 31.1 ± 1.3%
% of scavenging activity (ROS) (CEM leukemia cells; 2.5 μM): 25.3 ± 5.2%
% of scavenging activity (ROS) (CEM leukemia cells; 10 μM): 35.2 ± 3.9%
viability at 0.1 µM (FRDA cell line): 10 ± 3%
viability at 0.5 µM (FRDA cell line): 14 ± 5%
viability at 2.5 µM (FRDA cell line): 15 ± 4%
Scavenging activity (%) (lipid peroxidation) (leukemia CEM lymphocytes; 1 μM): 7 ± 2.8%
Scavenging activity (%) (lipid peroxidation) (leukemia CEM lymphocytes; 2.5 μM): 13 ± 4.2%
Scavenging activity (%) (lipid peroxidation) (leukemia CEM lymphocytes; 5 μM): 0%

CCCCCCCc1c(C)n(O)c(C)c(N)c1=O [CPD-3, 3-amino-5-heptyl-1-hydroxy-2,6-dimethylpyridin-4(1H)-one]
NADH oxidase (complex I, III, IV) activity (%) ([1]; 5 μM compound): 76.7 ± 6.9%
NADH oxidase (complex I, III, IV) activity (%) ([1]; 10 μM compound): 70.4 ± 5.5%
NADH oxidase (complex I, III, IV) activity (%) ([1]; l μM compound): 92.9 ± 10.9%
% of scavenging activity (ROS) (CEM leukemia cells; 0.25 μM): 4.6 ± 5.4%
% of scavenging activity (ROS) (CEM leukemia cells; 2.5 μM): 42.2 ± 2.9%
% of scavenging activity (ROS) (CEM leukemia cells; 10 μM): 67.0 ± 5.9%
viability at 0.1 µM (FRDA cell line): 19 ± 6%
viability at 0.5 µM (FRDA cell line): 19 ± 3%
viability at 2.5 µM (FRDA cell line): 25 ± 5%
Scavenging activity (%) (lipid peroxidation) (leukemia CEM lymphocytes; 1 μM): 14 ± 4.1%
Scavenging activity (%) (lipid peroxidation) (leukemia CEM lymphocytes; 2.5 μM): 20 ± 5.4%
Scavenging activity (%) (lipid peroxidation) (leukemia CEM lymphocytes; 5 μM): 9.6 ± 2.8%

CCCCCCCCCCCCCCCCc1c(C)n(O)c(C)c(N)c1=O [CPD-4, 3-amino-5-hexadecyl-1-hydroxy-2,6-dimethylpyridin-4(1H)-one]
NADH oxidase (complex I, III, IV) activity (%) ([1]; 5 μM compound): 12.7 ± 1.7%
NADH oxidase (complex I, III, IV) activity (%) ([1]; 10 μM compound): 10.7 ± 1.3%
NADH oxidase (complex I, III, IV) activity (%) ([1]; l μM compound): 17.1 ± 1^ %
% of scavenging activity (ROS) (CEM leukemia cells; 0.25 μM): 41.4 ± 14.9%
% of scavenging activity (ROS) (CEM leukemia cells; 2.5 μM): 81.8 ± 3.7%
% of scavenging activity (ROS) (CEM leukemia cells; 10 μM): 91.0 ± 1.5%
viability at 0.1 µM (FRDA cell line): 17 ± 5%
viability at 0.5 µM (FRDA cell line): 21 ± 9%
viability at 2.5 µM (FRDA cell line): 35 ± 9%
Scavenging activity (%) (lipid peroxidation) (leukemia CEM lymphocytes; 1 μM): 18 ± 2.2%
Scavenging activity (%) (lipid peroxidation) (leukemia CEM lymphocytes; 2.5 μM): 52 ± 1.5%
Scavenging activity (%) (lipid peroxidation) (leukemia CEM lymphocytes; 5 μM): 94 ± 0.2%

CCCCCCCc1c(C)n(O)c(C)c(OC)c1=O [CPD-5, 3-heptyl-1-hydroxy-5-methoxy-2,6-dimethylpyridin-4(1H)-one]
NADH oxidase (complex I, III, IV) activity (%) ([1]; 5 μM compound): 44.5 ± 3.6%
NADH oxidase (complex I, III, IV) activity (%) ([1]; 10 μM compound): 33.5 ± 2.2%
NADH oxidase (complex I, III, IV) activity (%) ([1]; l μM compound): 74.5 ± 6.9%
% of scavenging activity (ROS) (CEM leukemia cells; 0.25 μM): 21.0 ± 5.5%
% of scavenging activity (ROS) (CEM leukemia cells; 2.5 μM): 26.4 ± 4.4%
% of scavenging activity (ROS) (CEM leukemia cells; 10 μM): 0 ± 10%
viability at 0.1 µM (FRDA cell line): 12 ± 6%
viability at 0.5 µM (FRDA cell line): 17 ± 7%
viability at 2.5 µM (FRDA cell line): 14 ± 3%
Scavenging activity (%) (lipid peroxidation) (leukemia CEM lymphocytes; 1 μM): 11 ± 1.8%
Scavenging activity (%) (lipid peroxidation) (leukemia CEM lymphocytes; 2.5 μM): 16 ± 1.8%
Scavenging activity (%) (lipid peroxidation) (leukemia CEM lymphocytes; 5 μM): 2.2 ± 2.3%

CN(C)c1ccc2nc3ccc(=O)cc-3sc2c1 [CPD-18, 7-(dimethylamino)-3H-phenothiazin-3-one]
cellular ATP levels (FRDA lymphocyte): significantly increased cellular ATP levels
maintaining ATP levels, compared with methylene blue (FRDA lymphocyte; at higher concentrations): superior to methylene blue

COC1=C(OC)C(=O)C(C/C=C(\C)CC/C=C(\C)CC/C=C(\C)CC/C=C(\C)CC/C=C(\C)CC/C=C(\C)CC/C=C(\C)CC/C=C(\C)CC/C=C(\C)CCC=C(C)C)=C(C)C1=O [coenzyme Q10]
calculated octanol-water partition coefficient [2]: > 10^20

CN(C)c1ccc2nc3ccc(=[N+](C)C)cc-3sc2c1 [methylene blue, reference compound]
cellular ATP levels (FRDA lymphocyte): significantly increased cellular ATP levels

Source: patent US9388163B2, “Multifunctional radical quenchers for the treatment of mitochondrial dysfunction” (Arizona Board of Regents, a Body Corporate of the State of …, priority 2011, dated 2016)
